System: Influenza-Virus A/PR/8
Assay: Protection of immunised mice against intranasal influenza virus infection (survival, body weight)
Format: in vivo, BALB/c-Inzuchtmäuse
Description: Unter SPF-Bedingungen gezüchtete, 3 Monate alte BALB/c-Inzuchtmäuse wurden intravenös mit 100 µg Pam₃cys-Ser-Ser-[NP 147-158] immunisiert. (100 µg Pam₃Cys-Ser-Ser-[NP 147-158], aufgenommen in 300 µl PBS, 1 min beschallt). Nach 28 Tagen wurden die Mäuse mit 0,2 bzw. 0,4 haemagglutinierenden Einheiten Influenza-Virus A/PR/8 intranasal infiziert. Analog wurden zur Kontrolle Mäuse infiziert, denen 300 µl PBS intravenös appliziert wurde. Der Verlauf der Infektion wurde anhand von täglichen Gewichtskontrollen und der Überlebensrate kontrolliert. 11 von 12 Kontrolltieren, die mit 0,4 haemagglutinierenden Einheiten infiziert wurden, starben nach 11 Tagen an der Virusinfektion, während von den immunisierten Tieren nur 4 von 12 starben.
Eine weitere Kontrollgruppe und eine mit Pam₃Cys-Ser-Ser-[NP 147-158] immunisierte Gruppe wurden mit 0,2 haemagglutinierenden Einheiten Influenza-Virus infiziert. Nach 18 Tagen lebten noch 40 % der Kontrolltiere (4 von 10 Tieren), während 75 % der immunisierten Tiere lebten. Am Tag 18 betrug die Gewichtsdifferenz zwischen immunisierten Tieren und Kontrolltieren 4 g.

N-Palmitoyl-S-[2,3-(bispalmitoyloxy)-propyl]cysteinyl-seryl-seryl-NP 147-158 [Pam₃Cys-Ser-Ser-[NP 147-158]]
Verlauf der Infektion (Gewicht) (0,2 haemagglutinating units, after day 18, surviving controls kept losing weight): langsam von der Infektion erholten
Gewichtsdifferenz zwischen immunisierten Tieren und Kontrolltieren (0,2 haemagglutinating units, day 18): 4 g
immunisierte Tiere, die an der Virusinfektion starben (100 µg i.v. in 300 µl PBS, after 28 days infected intranasally with 0,4 haemagglutinating units, deaths after 11 days, PBS controls 11 von 12): 4 von 12
lebende immunisierte Tiere (immunised group infected with 0,2 haemagglutinating units, after 18 days, controls 40 %): 75%

Source: patent EP0431327B1, “Synthetic vaccine for the specific induction of cytotoxic T-lymphocytes” (HOECHST AKTIENGESELLSCHAFT, priority 1989, dated 1991)
